The values that follow come from US20250367283A1, “MEVALONATE PATHWAY INHIBITOR AS HIGHLY-EFFICIENT VACCINE ADJUVANT” (Tsinghua University, priority 2015, published 2025).

Test [1] deals with anti-OVA IgG antibody affinity. Put plainly: Antibody affinity by sodium thiocyanate disruption. Type of test: in vivo, mice. To be noted: for antibody affinity vs PBS control: IC50 of sodium thiocyanate, after boost. An excerpt: Antibody affinity refers to the strength of an antibody to bind to the epitope of an antigen, which is a very important indicator when evaluating an antibody. It is due to gene mutations of antibody-forming cells themselves and selective activation of antigens for B cell clones. The functional state of the body is the result of long-term evolution and continuous adaptation to the external environment, which is of great significance to the defense of the body and the maintenance of autoimmune monitoring. In an in vitro test, the affinity of an antibody is determined by disrupting the antigen-antibody binding by sodium thiocyanate. The determination of antibody affinity is based on the fact that sodium thiocyanate can disrupt the binding of antigen and antibody, and the stronger the affinity of the antibody, the higher the concentration of sodium thiocyanate is required to dissociate the antigen and antibody. From another aspect if the affinity of the antibody is stronger, the effect of an adjuvant is better.
The OVA protein was diluted to a concentration of 2 μg/ml with a carbonate solution of pH 9.6, coated in a 96-well ELISA plate at 50 μl per well, and left at 4° C. overnight. The ELISA plate was washed five times with PBS containing 0.05% Tween 20, blocked with 1% BSA solution at 200 μl per well, and incubated at room temperature for 2 h. The ELISA plate was washed five times with PBST and the serum with certain dilution was added. Specifically, for the dilutions, the PBS group was not diluted, the simvastatin group was diluted 16-fold, the TH-Z80 group was diluted 16-fold, the TH-Z93 group was diluted 32-fold, the TH-Z145 group was diluted 16-fold, the imiquimod group was diluted 8-fold, the PEI group was diluted 8-fold, the aluminum adjuvant group was diluted 8-fold, the MF59 group was diluted 16-fold, the incomplete Freund's adjuvant group was diluted 32-fold, and the complete Freund's adjuvant group was diluted 64-fold. Before adding sodium thiocyanate, the amount of anti-OVA IgG type antibody in the diluted serum was the same, 50 μl per well, and incubated for 2 h at room temperature. After washing the ELISA plate with PBST for five times, 10 mM, 9.5 mM, 9 mM, 8.5 mM, 8 mM, 7.5 mM, 7 mM, 6.5 mM,6 mM, 5.5 mM, 5 mM, 4.5 mM, 4 mM, 3.5 mM, 3 mM, 2.5 mM, 2 mM, 1.5 mM, and 0.5 mM sodium thiocyanate were added to each well at 50 μl per well, and incubated for 30 min at room temperature. After washing the ELISA plate for five times with PBST, HRP-labeled goat-anti-mouse antibody was added to each well at 50 μl per well and incubated for 45 min at room temperature. The ELISA plate was washed for five times with PBST, and a color developing solution of sodium citrate OPD was added. After 10 min of color development in the dark, sulfuric acid was added to terminate the reaction. According to the readings of ELIASA, the Prism software was used to calculate the IC50 of sodium thiocyanate. The higher the IC50 value, the stronger the antibody affinity produced by the immunization.
In an in vitro test, the affinity of the antibody was determined by disrupting the binding of the antigen to the antibody by NaSCN. The procedure was as follows: a 96-well ELISA plate was coated with 2 μg/ml OVA, and blocked with 2% BSA. […] Absorbance values at OD 490 nm were read. The IC50 values of NaSCN inhibition were calculated. […]

Test [2] has as its system B lymphocytes, T lymphocytes, macrophages and dendritic cells in lymph nodes. The experiment in a line: Recruitment of cells in lymph nodes after immunization. To be noted: 24 hours after subcutaneous immunization, vs Ctrl and PBS. Type of test: in vivo, mice. The procedure:
Method: Following an similar procedure of example 1, OVA was used as antigen and three inhibitor compounds, simvastatin, TH-Z80, and TH-Z145 were added as adjuvants, respectively. The OVA antigen and adjuvant were mixed at 1:1 and used for immunizing mice by subcutaneous injection. 24 hours after immunization, inguinal lymph nodes ipsilateral to the immunization were removed and separated through a 100 mesh screen into single-cell suspension. Flow cytometry was used to determine changes of the proportions and numbers of B lymphocytes, T lymphocytes, macrophages and dendritic cells in lymph nodes. The marker of the B lymphocyte was B220, the marker of the T lymphocyte was CD3, the markers of the macrophage were CD11b and F4/80, and the marker of the dendritic cell was CD11c.

Test [3] addresses humanized farnesyl pyrophosphate synthase (HsFPPS) (Homo sapiens (Human), UniProt P14324). The experiment in a line: In vitro HsFPPS enzyme activity assay. Type of test: biochemical. The procedure: The measurement method is briefly described as follows: the expression of HsFPPS with 6 consecutive His at the N-terminus was induced in vitro, collected, and purified by Ni column. An in vitro HsFPPS enzyme activity assay was performed in a 96-well plate with 200 μl of solution per well. The buffer of the system was 25 mM HEPES, 2.5 mM MgCl2, pH 7.4. Using DMAPP and IPP as reaction substrates, the change of the UV value at a wavelength of 360 nm was monitored in real time in a phosphate lyase system. The ORIGIN 8.0 software was used to plot and fit. The IC50 values for the inhibition of FPPS by the TH-Z80 series of compounds were shown in the following table, in micromoles per liter (μM).
HsFPPs with 6 consecutive His at the N-terminus was induced to express in vitro, collected, and purified by Ni column. In vitro HsFPPs enzymatic activity assay was performed in a 96-well plate at 200 μl of solution per well. The buffer of the system was 25 mM HEPES, 2.5 mM MgCl2, pH 7.4. Using DMAPP and IPP as reaction substrates, the changes of UV at 360 nm were monitored in real-time in phosphate lyase system. ORIGIN 8.0 software was used to plot and fit.

The test system of test [4] is Plasmodium falciparum 3D7. Put plainly: Test of plasmodium activity (SYBR-GREEN1). The format is cell-based. To be noted: infected erythrocytes, 72 hours; read-out: Malaria (IC50/μM). The procedure: Plasmodium falciparum 3D7 was cultured with […] medium mixed with 10% human O-type blood serum and 25 mM HEPES. The cultivation process was maintained in a carbon dioxide incubator under 5% carbon dioxide. In vitro drug testing experiments were performed on a 96-well plate. The test drug was dissolved in PBS and pre-diluted with complete medium. Infected erythrocytes were cultured in triplicate for 72 hours in 3-fold serial dilutions of drug. Then an equal amount of SYBR-GREEN1 was added to each well. The detection was then performed at 485 nm for excitation light and 538 nm for emitted light. […] ORIGIN 8.0 software was used to plot and fit.

The mark [5] stands for this setting: Example 15 table, read-out: HsFPPS (IC50/μM).
Where [6] appears, read: TH-Z80 series, DMAPP and IPP substrates, pH 7.4, read-out: IC50 for inhibition of FPPS.

Read-outs that look alike come from different tables or passages of the source.

Sequence of humanized farnesyl pyrophosphate synthase (HsFPPS) (P14324 whole entry, looked up): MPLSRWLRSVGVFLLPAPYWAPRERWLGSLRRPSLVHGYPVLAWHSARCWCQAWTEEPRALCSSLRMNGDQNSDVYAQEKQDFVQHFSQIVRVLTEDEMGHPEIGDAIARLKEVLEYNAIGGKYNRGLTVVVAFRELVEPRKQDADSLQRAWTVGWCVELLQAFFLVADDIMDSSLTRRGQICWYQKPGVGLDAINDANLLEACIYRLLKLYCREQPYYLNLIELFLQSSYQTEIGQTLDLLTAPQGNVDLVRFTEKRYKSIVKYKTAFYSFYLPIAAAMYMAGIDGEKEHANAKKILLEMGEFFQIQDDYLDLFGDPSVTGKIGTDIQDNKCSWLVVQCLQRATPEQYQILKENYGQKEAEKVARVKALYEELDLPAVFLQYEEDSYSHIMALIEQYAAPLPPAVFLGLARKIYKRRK

As to “(2-(3-(octyloxy)phenyl)ethane-1,1-diyl)bisphosphonic acid [TH-Z145]”, the “antibody affinity vs PBS control” value in test [1] is “significantly high titers and antibody affinities”. In addition, the “proportions and numbers of B lymphocytes, T lymphocytes, macrophages and dendritic cells in lymph nodes” value (“proportions and numbers of B lymphocytes” for short) in test [2] is “significantly increased”.
With `CCC(C)(C)C(=O)O[C@H]1C[C@@H](C)C=C2C=C[C@H](C)[C@H](CC[C@@H]3C[C@@H](O)CC(=O)O3)[C@H]21` [simvastatin, reference compound], the “antibody affinity vs PBS control” value in test [1] is “significantly high titers and antibody affinities”. The “proportions and numbers of B lymphocytes” value in test [2] is reported as “significantly increased”.
Consider `CCCCCCOc1ccnc(NC(P(=O)(O)O)P(=O)(O)O)c1` [TH-Z93, (((4-(hexyloxy)pyridin-2-yl)amino)methylene)bisphosphonic acid], for which, in test [3] (o-aminopyridine bisphosphonic acid compounds, read-out: IC50 (inhibition of FPPS)), the IC50 was found to be 0.1 µM. For the same compound, the “antibody affinity vs PBS control” value in test [1] was “significantly high titers and antibody affinities”.
As for `CCCCCCCCCOc1ccc2c(c1)ncn2CC(O)(P(=O)(O)O)P(=O)(O)O` [TH-Z153], the results for the IC50 in test [3] (setting [5]), in test [3] (setting [6]) and in test [4] were 4.9 µM, 4.9 µM and 1.28 µM, respectively.
Consider `CCCCCCOc1ccc2c(c1)ncn2CC(O)(P(=O)(O)O)P(=O)(O)O` [TH-Z80], for which the results for the IC50 in test [3] (setting [5]), in test [3] (setting [6]) and in test [4] were 0.11 µM, 0.11 µM and 1.76 µM, respectively. Further, in test [1], the “antibody affinity vs PBS control” value is “significantly high titers and antibody affinities”. Moreover, in test [1] (NaSCN IC50, 7 days after boosting), the “antibody affinity compared to PBS” value was “significantly increased the affinity”. For the same compound, in test [2], the “proportions and numbers of B lymphocytes” value was “significantly increased”.
Regarding `CCCCCCCCOc1ccc2c(c1)ncn2CC(O)(P(=O)(O)O)P(=O)(O)O` [TH-Z81], the IC50 in test [3] (setting [5]) came out at 0.48 µM; in test [3] (setting [6]) it was 0.48 µM; in test [4], 1.95 µM.
As to `CCCCCCCOc1ccc2c(c1)ncn2CC(O)(P(=O)(O)O)P(=O)(O)O` [TH-Z152], the IC50 amounted to 0.14 µM in test [3] (setting [5]), 0.14 µM in test [3] (setting [6]) and 1.21 µM in test [4].
